One test concerns NCI-H929. In words: Cytostatic activity on human multiple myeloma cell line NCI-H929 (WST-1). The following applies: NCI-H929 cells, test compound 1 μmol/L, WST-1; for inhibition at 1 µM: Homo sapiens, NCI-H929, 72 h, read-out: cytostatic rate (%) H929 (1 μmol/L). Type of test: cell-based. The method in brief: (§1)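 Cytostatic rate is 100 minus % growth relative to DMSO-only wells (100%) and blank wells (0%), read by WST-1 absorbance at 450/690 nm after 2 h. Compound at 1 or 10 μmol/L final was applied for 72 h at 37 °C to cells seeded 24 h earlier.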

A further test has as its system KMS-11. In words: Cytostatic activity on human multiple myeloma cell line KMS-11 (WST-1). Type of test: cell-based. The conditions noted are these: KMS-11 cells, test compound 1 μmol/L, WST-1; for inhibition at 1 µM: Homo sapiens, KMS-11, 72 h, read-out: cytostatic rate (%) KMS-11 (1 μmol/L). The method in brief: as §1
A further test addresses T1, IGF-1R (Homo sapiens, UniProt P08069).
T1 construct: purchased Upstate Co. 14-465
In words: IGF-1R inhibitory activity (kinase reaction, time-resolved fluoroimmunoassay). Type of test: biochemical. The conditions noted are these: IGF-1R active recombinant enzyme, test compound 10 μmol/L. The method in brief: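 Compounds were tested at a single 10 μmol/L concentration. Each was incubated with recombinant IGF-1R (200 μg/L), 10 mmol/L ATP, MgCl2/MnCl2 and Na3VO4 (pH 7.5) on immobilized poly(Glu-Tyr) peptide for 30 min at 24° C. Eu-anti-phosphotyrosine time-resolved fluorescence (340/615 nm) gave relative activity against no-compound and no-enzyme wells, reported as % inhibition.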

T1 sequence (P08069 959-1367 limits assumed): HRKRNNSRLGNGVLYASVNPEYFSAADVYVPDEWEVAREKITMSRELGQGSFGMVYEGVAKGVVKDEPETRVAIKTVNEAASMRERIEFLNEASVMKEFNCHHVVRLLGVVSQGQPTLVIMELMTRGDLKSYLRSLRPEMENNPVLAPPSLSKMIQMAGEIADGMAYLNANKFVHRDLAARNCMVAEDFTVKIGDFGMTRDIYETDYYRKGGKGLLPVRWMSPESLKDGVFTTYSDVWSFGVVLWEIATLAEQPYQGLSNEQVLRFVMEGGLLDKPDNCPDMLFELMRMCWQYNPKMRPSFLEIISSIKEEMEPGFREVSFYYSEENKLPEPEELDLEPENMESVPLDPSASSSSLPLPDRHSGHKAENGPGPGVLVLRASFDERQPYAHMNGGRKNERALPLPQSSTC

Regarding `Cc1ccsc1C(=O)Nc1cc(C(=O)N(C)C2CCN(C)CC2)ccc1/C=C/c1n[nH]c2ccccc12` [Compound 328, (E)-N-{2-[2-(1H-indazol-3-yl)vinyl]-5-[N-methyl-N-(1-methylpiperidin-4-yl)carbamoyl]phenyl}-3-methylthiophene-2-carboxamide], the inhibition at 1 µM turned out to be 116% with NCI-H929 and 105% with KMS-11. The inhibition at 10 µM on IGF-1R was 97.9%.
For `Cc1ccsc1C(=O)Nc1cc(CN2CCN(C)C(=O)C2)ccc1/C=C/c1n[nH]c2ccccc12` [Compound 329, (E)-N-{2-[2-(1H-indazol-3-yl)vinyl]-5-(4-methyl-3-oxopiperazine-1-ylmethyl)phenyl}-3-methylthiophene-2-carboxamide], in that order: 132%, 116% and 105%.
For `Cc1ccsc1C(=O)Nc1cc(CN2CC[C@@H](O)C2)ccc1/C=C/c1n[nH]c2ccccc12` [Compound 330, (R)-(E)-N-{5-(3-hydroxypyrrolidin-1-ylmethyl)-2-[2-(1H-indazol-3-yl)vinyl]phenyl}-3-methylthiophene-2-carboxamide], in that order: 131%, 112% and 102%.
For `Cc1ccsc1C(=O)Nc1cc(CN2CCNC[C@H]2C)ccc1/C=C/c1n[nH]c2ccccc12` [Compound 331, (R)-(E)-N-{2-[2-(1H-indazol-3-yl)vinyl]-5-(2-methylpiperazin-1-ylmethyl)phenyl}-3-methylthiophene-2-carboxamide] the same measures were 116%, 102% and 103%.
As to `Cn1cccc1C(=O)Nc1cc(CN2CCNCC2)ccc1/C=C/c1n[nH]c2ccccc12` [Compound 332], the “cytostatic rate (%) H929 (1 μmol/L)” value with NCI-H929 amounted to 113.9%. Also, the “cytostatic rate (%) KMS-11 (1 μmol/L)” value with KMS-11 turned out to be 89.9%. Further, the “inhibitory activity (%) at 10 μmol/L” value on IGF-1R was 102.6%.
In the case of `COc1c(OCC(=O)N2CCN(C)CC2)ccc(/C=C/c2n[nH]c3ccccc23)c1NC(=O)c1sccc1C` [Compound 333, (E)-N-{6-[2-(1H-indazol-3-yl)vinyl]-2-methoxy-3-[2-(4-methylpiperazin-1-yl)-2-oxoethoxy]phenyl}-3-methylthiophene-2-carboxamide], the inhibition at 1 µM with NCI-H929 was 118%; in the test with KMS-11, 119%. Besides, the inhibition at 10 µM at IGF-1R stood at 109%.
For `COc1c(OCCN2C(=O)CNC2=O)ccc(/C=C/c2n[nH]c3ccccc23)c1NC(=O)c1sccc1C` [Compound 334, (E)-N-{6-[2-(1H-indazol-3-yl)vinyl]-2-methoxy-3-[2-(2,5-dioxoimidazolidin-1-yl)ethoxy]phenyl}-3-methylthiophene-2-carboxamide] the same measures were 111%, 97.5% and 102%.
`COc1c(OCC(=O)N2CCOCC2)ccc(/C=C/c2n[nH]c3ccccc23)c1NC(=O)c1sccc1C` [Compound 335, (E)-N-{6-[2-(1H-indazol-3-yl)vinyl]-2-methoxy-3-(2-morpholin-4-yl-2-oxoethoxy)phenyl}-3-methylthiophene-2-carboxamide]: the figures for the inhibition at 1 µM in the test with NCI-H929 and in the test with KMS-11 were 117% and 110%, respectively. Besides, the inhibition at 10 µM on IGF-1R stood at 102%.
For `Cc1ccsc1C(=O)Nc1cc(CN2CCNC[C@@H]2C)ccc1/C=C/c1n[nH]c2ccccc12` [Compound 336, (E)-(S)—N-{2-[2-(1H-indazol-3-yl)vinyl]-5-(2-methylpiperazin-1-ylmethyl)phenyl}-3-methylthiophene-2-carboxamide], the inhibition at 1 µM in the test on NCI-H929 was 131%; with KMS-11, 115%. Also, on IGF-1R, the inhibition at 10 µM was found to be 101%.
Turning to `COc1c(OCCN2CCCC2=O)ccc(/C=C/c2n[nH]c3ccccc23)c1NC(=O)c1sccc1C` [Compound 337, (E)-N-{6-[2-(1H-indazol-3-yl)vinyl]-2-methoxy-3-[2-(2-oxopyrrolidin-1-yl)ethoxy]phenyl}-3-methylthiophene-2-carboxamide], the inhibition at 1 µM in the test on NCI-H929 amounted to 120%; in the test with KMS-11, 121%. Besides, on IGF-1R, the inhibition at 10 µM turned out to be 97.4%.

For the origin of these results see patent US7605272B2, “IGF-1R inhibitor” (Kyowa Hakko Kirin Co., Ltd., priority 2005, dated 2009).
